Test results reported in patent US9663473B2 (Actelion Pharmaceuticals Ltd, priority 2013, dated 2017).

Biological target: T1, recombinant human ALX receptor (Homo sapiens, UniProt P25090)
T1 construct: expressed in transfected cells; host or cells: HEK293 (HEK293-hALXR-Gα16)
T1 sequence (P25090 1-351): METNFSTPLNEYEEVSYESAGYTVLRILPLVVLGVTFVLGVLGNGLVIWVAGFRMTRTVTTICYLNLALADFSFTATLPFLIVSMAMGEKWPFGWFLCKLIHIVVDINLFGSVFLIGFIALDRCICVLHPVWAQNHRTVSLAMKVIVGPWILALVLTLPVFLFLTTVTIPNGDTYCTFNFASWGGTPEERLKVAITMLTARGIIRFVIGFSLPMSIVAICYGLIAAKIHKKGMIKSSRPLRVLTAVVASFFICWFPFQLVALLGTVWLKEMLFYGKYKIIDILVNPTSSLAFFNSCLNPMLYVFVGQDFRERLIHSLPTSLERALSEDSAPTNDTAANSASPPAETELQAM
Assay: Intracellular calcium measurements (FLIPR), ALX receptor agonistic activity
Type: cell-based
Details: HEK293-hALXR-Gα16 cells, Fluo-4 calcium signal, normalized to WKYMVm 10 nM
Outline: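 Agonist-induced calcium flux was read by FLIPR (488/540 nm) as baseline-subtracted peak emission, expressed relative to WKYMVm at 10 nM final. Cells used: HEK293-hALXR-Gα16, dye-loaded 60 min at 37° C. with 1 μM Fluo-4 AM before compound dose-response addition.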

EC50 | Compound
288 nM | COc1ccc(C[C@@H](NC(=O)NC2CCNC(=O)C2)c2nc3ccccc3[nH]2)cc1 (stereo partly drawn) [Example 174, 1-((R)-1-(1H-Benzo[d]imidazol-2-yl)-2-(4-methoxyphenyl)ethyl)-3-(2-oxopiperidin-4-yl)urea]
58 nM | COc1ccc(CC(NC(=O)NC2CC(C)(C)NC(C)(C)C2)c2nc3ccccc3[nH]2)cc1F (centres unmarked) [Example 176, 1-(1-(1H-Benzo[d]imidazol-2-yl)-2-(3-fluoro-4-methoxyphenyl)ethyl)-3-(2,2,6,6-tetramethylpiperidin-4-yl)urea]
247 nM | COc1ccc(C[C@@H](NC(=O)Nc2cccc(OC)c2)c2nc3ccccc3[nH]2)cc1 [Example 177, (R)-1-(1-(1H-Benzo[d]imidazol-2-yl)-2-(4-methoxyphenyl)ethyl)-3-(3-methoxyphenyl)urea]
699 nM | COc1ccc(C[C@@H](NC(=O)Nc2ccccc2OC)c2nc3ccccc3[nH]2)cc1 [Example 178, (R)-1-(1-(1H-Benzo[d]imidazol-2-yl)-2-(4-methoxyphenyl)ethyl)-3-(2-methoxyphenyl)urea]
88 nM | COc1ccc(C[C@@H](NC(=O)NC2CCN(CCF)CC2)c2nc3ccccc3[nH]2)cc1 [Example 181, (R)-1-(1-(1H-Benzo[d]imidazol-2-yl)-2-(4-methoxyphenyl)ethyl)-3-(1-(2-fluoroethyl)piperidin-4-yl)urea]
40 nM | COc1ccc(C[C@@H](NC(=O)NC2CCN(CC(F)F)CC2)c2nc3ccccc3[nH]2)cc1 [Example 182, (R)-1-(1-(1H-Benzo[d]imidazol-2-yl)-2-(4-methoxyphenyl)ethyl)-3-(1-(2,2-difluoroethyl)piperidin-4-yl)urea]
29 nM | COc1ccc(C[C@@H](NC(=O)NC2CCCN(CC(F)F)C2)c2nc3ccccc3[nH]2)cc1 (stereo partly drawn) [Example 186, 1-((R)-1-(1H-Benzo[d]imidazol-2-yl)-2-(4-methoxyphenyl)ethyl)-3-(-1-(2,2-difluoroethyl)piperidin-3-yl)urea]
19 nM | COc1ccc(C[C@@H](NC(=O)N[C@H]2CC[C@@](C)(O)CC2)c2nc3ccccc3[nH]2)cc1 [Example 189, 1-((R)-1-(1H-Benzo[d]imidazol-2-yl)-2-(4-methoxyphenyl)ethyl)-3-(cis-4-hydroxy-4-methylcyclohexyl)urea]
0.1 nM | COc1ccc(C[C@@H](NC(=O)NC23CCC(O)(CC2)CC3)c2nc3ccc(Cl)cc3[nH]2)cc1 [Example 192, (R)-1-(1-(6-Chloro-1H-benzo[d]imidazol-2-yl)-2-(4-methoxyphenyl)ethyl)-3-(4-hydroxybicyclo[2.2.2]octan-1-yl)urea]
1.1 nM | O=C(N[C@H](Cc1ccc(Br)cc1)c1nc2ccc(F)cc2[nH]1)NC12CCC(O)(CC1)CC2 [Example 195, (R)-1-(2-(4-Bromophenyl)-1-(6-fluoro-1H-benzo[d]imidazol-2-yl)ethyl)-3-(4-hydroxybicyclo[2.2.2]octan-1-yl)urea]
81 nM | COc1ccc(C[C@@H](NC(=O)NCc2ccccc2CN(C)C)c2nc3ccccc3[nH]2)cc1 [Example 199, (R)-1-(1-(1H-Benzo[d]imidazol-2-yl)-2-(4-methoxyphenyl)ethyl)-3-(2-((dimethylamino)methyl)benzyl)urea]
5 nM | COC[C@H](Cc1ccccc1)NC(=O)N[C@H](Cc1ccc(OC)cc1)c1nc2ccccc2[nH]1 [Example 204, 1-((R)-1-(1H-Benzo[d]imidazol-2-yl)-2-(4-methoxyphenyl)ethyl)-3-((S)-1-methoxy-3-phenylpropan-2-yl)urea]
62 nM | COc1ccc(C[C@@H](NC(=O)N[C@@H](CO)Cc2ccccc2)c2nc3ccccc3[nH]2)cc1 [Example 205, 1-((R)-1-(1H-Benzo[d]imidazol-2-yl)-2-(4-methoxyphenyl)ethyl)-3-((R)-1-hydroxy-3-phenylpropan-2-yl)urea]
144 nM | COc1ccc(C[C@@H](NC(=O)NCc2cccnc2N2CCOCC2)c2nc3ccccc3[nH]2)cc1 [Example 206, (R)-1-(1-(1H-Benzo[d]imidazol-2-yl)-2-(4-methoxyphenyl)ethyl)-3-((2-morpholinopyridin-3-yl)methyl)urea]
835 nM | COc1ccc(C[C@@H](NC(=O)NCc2ccccc2Cl)c2nc3ccccc3[nH]2)cc1 [Example 207, (R)-1-(1-(1H-Benzo[d]imidazol-2-yl)-2-(4-methoxyphenyl)ethyl)-3-(2-chlorobenzyl)urea]

More lines, now with the values behind:

Compound | EC50
COc1ccc(C[C@@H](NC(=O)NC23CCN(CC2)CC3)c2nc3ccccc3[nH]2)cc1 [Example 170, (R)-1-(1-(1H-Benzo[d]imidazol-2-yl)-2-(4-methoxyphenyl)ethyl)-3-(quinuclidin-4-yl)urea] | 76 nM
COc1ccc(C[C@@H](NC(=O)N[C@H]2CC[C@](C)(O)CC2)c2nc3ccccc3[nH]2)cc1 [Example 173, 1-((R)-1-(1H-Benzo[d]imidazol-2-yl)-2-(4-methoxyphenyl)ethyl)-3-(trans-4-hydroxy-4-methylcyclohexyl)urea] | 3.1 nM
COc1ccc(CC(NC(=O)NC2CCCC2)c2nc3ccccc3[nH]2)cc1F (centres unmarked) [Example 175, 1-(1-(1H-Benzo[d]imidazol-2-yl)-2-(3-fluoro-4-methoxyphenyl)ethyl)-3-cyclopentylurea] | 209 nM
COc1ccc(C[C@@H](NC(=O)N[C@H]2CC[C@H](O)CC2)c2nc3cc(Br)ccc3[nH]2)cc1 [Example 179, 1-((R)-1-(5-Bromo-1H-benzo[d]imidazol-2-yl)-2-(4-methoxyphenyl)ethyl)-3-(trans-4-hydroxycyclohexyl)urea] | 1.1 nM
COc1ccc(C[C@@H](NC(=O)NC2CCCN(CCF)C2)c2nc3ccccc3[nH]2)cc1 (stereo partly drawn) [Example 180, 1-((R)-1-(1H-Benzo[d]imidazol-2-yl)-2-(4-methoxyphenyl)ethyl)-3-(1-(2-fluoroethyl)piperidin-3-yl)urea] | 59 nM
COc1ccc(C[C@@H](NC(=O)N[C@H]2CC[C@@H](O)CC2)c2nc3ccccc3[nH]2)cc1 [Example 183, 1-((R)-1-(1H-Benzo[d]imidazol-2-yl)-2-(4-methoxyphenyl)ethyl)-3-(cis-4-hydroxycyclohexyl)urea] | 58 nM
O=C(N[C@H](Cc1ccc(C(F)(F)F)cc1)c1nc2ccccc2[nH]1)N[C@H]1CC[C@H](O)CC1 [Example 190, 1-((R)-1-(1H-Benzo[d]imidazol-2-yl)-2-(4-(trifluoromethyl)phenyl)ethyl)-3-(trans-4-hydroxycyclohexyl)urea] | 19 nM
Cc1ccc(C[C@@H](NC(=O)N[C@H]2CC[C@H](O)CC2)c2nc3ccccc3[nH]2)cc1 [Example 191, 1-((R)-1-(1H-Benzo[d]imidazol-2-yl)-2-(p-tolyl)ethyl)-3-(trans-4-hydroxycyclohexyl)urea] | 31 nM
COc1ccc(CC(NC(=O)NC23CCC(O)(CC2)CC3)c2nc3ccccc3[nH]2)cc1F (centres unmarked) [Example 193, 1-(1-(1H-Benzo[d]imidazol-2-yl)-2-(3-fluoro-4-methoxyphenyl)ethyl)-3-(4-hydroxybicyclo[2.2.2]octan-1-yl)urea] | 1.8 nM
O=C(N[C@H](Cc1ccc(Br)cc1)c1nc2ccc(Cl)cc2[nH]1)NC12CCC(O)(CC1)CC2 [Example 194, (R)-1-(2-(4-Bromophenyl)-1-(6-chloro-1H-benzo[d]imidazol-2-yl)ethyl)-3-(4-hydroxybicyclo[2.2.2]octan-1-yl)urea] | 1.9 nM
COc1ccc(C[C@@H](NC(=O)NC23CCC(O)(CC2)CC3)c2nc3ccc(F)cc3[nH]2)cc1 [Example 196, (R)-1-(1-(6-Fluoro-1H-benzo[d]imidazol-2-yl)-2-(4-methoxyphenyl)ethyl)-3-(4-hydroxybicyclo[2.2.2]octan-1-yl)urea] | 0.8 nM
COc1ccc(C[C@@H](NC(=O)NCC(C)c2ccccc2)c2nc3ccccc3[nH]2)cc1 (stereo partly drawn) [Example 197, 1-((R)-1-(1H-Benzo[d]imidazol-2-yl)-2-(4-methoxyphenyl)ethyl)-3-(2-phenylpropyl)urea] | 50 nM
COc1ccc(C[C@@H](NC(=O)NCc2ccccc2OC(F)F)c2nc3ccccc3[nH]2)cc1 [Example 198, (R)-1-(1-(1H-Benzo[d]imidazol-2-yl)-2-(4-methoxyphenyl)ethyl)-3-(2-(difluoromethoxy)benzyl)urea] | 299 nM
COC[C@@H](NC(=O)N[C@H](Cc1ccc(OC)cc1)c1nc2ccccc2[nH]1)c1ccccc1 [Example 200, 1-((R)-1-(1H-Benzo[d]imidazol-2-yl)-2-(4-methoxyphenyl)ethyl)-3-((S)-2-methoxy-1-phenylethyl)urea] | 53 nM
COC[C@H](NC(=O)N[C@H](Cc1ccc(OC)cc1)c1nc2ccccc2[nH]1)c1ccccc1 [Example 201, 1-((R)-1-(1H-Benzo[d]imidazol-2-yl)-2-(4-methoxyphenyl)ethyl)-3-((R)-2-methoxy-1-phenylethyl)urea] | 54 nM
COc1ccc(C[C@@H](NC(=O)NCc2ccccc2C)c2nc3ccccc3[nH]2)cc1 [Example 202, (R)-1-(1-(1H-Benzo[d]imidazol-2-yl)-2-(4-methoxyphenyl)ethyl)-3-(2-methylbenzyl)urea] | 602 nM
COc1ccc(C[C@@H](NC(=O)N[C@H](CO)c2ccccc2)c2nc3ccccc3[nH]2)cc1 [Example 203, 1-((R)-1-(1H-Benzo[d]imidazol-2-yl)-2-(4-methoxyphenyl)ethyl)-3-((S)-2-hydroxy-1-phenylethyl)urea] | 176 nM
